Values of other authors, collected in US20140213990A1, “COMPOSITIONS AND METHODS FOR TREATING SURFACE WOUNDS” (priority 2013, published 2014).

Columns and labels:
diabetic foot ulcers = conditions: at 20 weeks of treatment
[1] = Phase III clinical trials

Substance: Becaplermin
- closure (healing) rate for diabetic foot ulcers (diabetic foot ulcers): 44%
- patients in whom cancer appeared [1]: 80%
